Here are results for twelve compounds from patent US8114900B2, “Amorphous carvedilol dihydrogen phosphate” (Teva Pharmaceutical Industries Ltd., priority 2006, dated 2012).

Read-outs that look alike come from different tables or passages of the source. Some results are limits rather than exact numbers.

As a reminder, the solubility is the dissolved amount per volume that the medium holds.

Series [1] can be described thus: % crystallinity calculation using the WinXRD 2.0 program. The format is physicochemical. To be noted: from XRD. An excerpt: 2.0 program (FIGS. 46, 48, 39, 40, 43, 53, 50, 41).
A short description of series [2]: Solubility of solid forms at pH=7 and 25° C. The series is classed as physicochemical. On the procedure:
The amorphous form (1:1) of the present invention has higher solubility with compared to Form I at pH=7 and 25° C.: […]

Series [3] is described as follows: Particle size dimensions from microscope images. The format is physicochemical. The source says:
It has the advantage of being able to reduce the particle size to a range of smaller dimensions (according to the requirements of the formulator who prepare the capsule or tablet), while when starting in advance with a smaller size of powder (Form I) limits this option. In addition, small particles, reduce flowability.

A short description of series [4]: Stability upon heating under extreme heat conditions (oven). The format is physicochemical. The following applies: 80° C. for 30 min in oven.
The conditions of series [5]: cited from earlier work.

`COc1ccccc1OCCNCC(O)COc1cccc2[nH]c3ccccc3c12.O=P(O)(O)O` (centres unmarked) [Form P, carvedilol dihydrogen phosphate]: the “% crystallinity” value in series [1] (listed as P) is “about 85%”. Regarding `COc1ccccc1OCCNCC(O)COc1cccc2[nH]c3ccccc3c12.O=P(O)(O)O` (centres unmarked) [Amorphous, carvedilol dihydrogen phosphate], the “solubility” value in series [2] amounted to 14.9 µg/mL. Regarding `COc1ccccc1OCCNCC(O)COc1cccc2[nH]c3ccccc3c12.O=P(O)(O)O` (centres unmarked) [Form I, carvedilol dihydrogen phosphate], in series [1] (listed as I), the “% crystallinity” value is given as “about 68%”. In addition, in series [2] (listed as I (′027)), the “solubility” value is 9.6 µg/mL. Besides, the particle size dimensions entry in series [3] (listed as I) is given as “less than 20 μm”. In the case of `COc1ccccc1OCCNCC(O)COc1cccc2[nH]c3ccccc3c12.O=P(O)(O)O` (centres unmarked) [Form Y, carvedilol dihydrogen phosphate], in series [3] (listed as Y), the particle size dimensions is listed as 20-100 μm. For `COc1ccccc1OCCNCC(O)COc1cccc2[nH]c3ccccc3c12.O=P(O)(O)O` (centres unmarked) [Form L1, carvedilol dihydrogen phosphate], in series [1] (listed as L1), the “% crystallinity” value is listed as “about 85%”. Also, in series [4] (listed as L1), the “stability upon heating (solid form)” value is listed as “stable upon heating”. For `COc1ccccc1OCCNCC(O)COc1cccc2[nH]c3ccccc3c12` (racemic) [carvedilol, (±)-1-(Carbazol-4-yloxy)-3-[[2-(o-methoxyphenoxy)ethyl]amino]-2-propanol], the solubility in series [5] (in alkaline media) was less than 1 µg/mL; in series [5] (increases with decreasing pH, upper value) it was “up to 100 μg/mL”. Turning to `COc1ccccc1OCCNCC(O)COc1cccc2[nH]c3ccccc3c12.O=P(O)(O)O` (centres unmarked) [Form L, carvedilol dihydrogen phosphate], in series [1] (listed as L), the “% crystallinity” value is “about 88%”. In addition, the “stability upon heating (solid form)” value in series [4] (listed as L) is given as “stable upon heating”.

With `COc1ccccc1OCCNCC(O)COc1cccc2[nH]c3ccccc3c12.O=P(O)(O)O` (centres unmarked) [Form F, carvedilol dihydrogen phosphate], the “% crystallinity” value in series [1] (listed as F) is recorded as “about 87%”. The particle size dimensions in series [3] (listed as F) is listed as 50-200 μm. Further, the “stability upon heating (solid form)” value in series [4] (listed as F) is “stable upon heating”. As for `COc1ccccc1OCCNCC(O)COc1cccc2[nH]c3ccccc3c12.O=P(O)(O)O` (centres unmarked) [Form N, carvedilol dihydrogen phosphate], the “% crystallinity” value in series [1] (listed as N) is “about 86%”. The particle size dimensions in series [3] (listed as N) was 200-400 μm.

`COc1ccccc1OCCNCC(O)COc1cccc2[nH]c3ccccc3c12.O=P(O)(O)O` (centres unmarked) [Form F1, carvedilol dihydrogen phosphate]: in series [1] (listed as F1), the “% crystallinity” value is recorded as “about 86%”. Moreover, the particle size dimensions in series [3] (listed as F1) is 50-150 μm. For the same compound, in series [4] (listed as F1), the “stability upon heating (solid form)” value is listed as “stable upon heating”. In the case of `COc1ccccc1OCCNCC(O)COc1cccc2[nH]c3ccccc3c12.O=P(O)(O)O` (centres unmarked) [Form IV, reference compound], the “stability upon heating (solid form)” value in series [4] is “transforms to amorphous form”. As to `COc1ccccc1OCCNCC(O)COc1cccc2[nH]c3ccccc3c12.O=P(O)(O)O` (centres unmarked) [Form R, carvedilol dihydrogen phosphate], the “% crystallinity” value in series [1] (listed as R) is listed as “about 86%”. Besides, the “stability upon heating (solid form)” value in series [4] (listed as R) is recorded as “stable upon heating”.
